Like-named read-outs stand apart in the source and are kept apart here.

In general, viability refers to the share of living cells, or the viability signal relative to a control.

Test [1] concerns mouse primary cortical neurons. The experiment in a line: Axonal growth (MAP2 immunolabelling, axonal length). Conditions: vehicle control 165.96±90.18 μm. Type of test: cell-based. As to the method:
Mouse primary cortical neurons were pre-incubated for 48 h with vehicle, 60 nM sAPPα (used as positive control) or different concentrations of Compound C. Then, cortical neurons were treated for 24 h with vehicle. Data are represented as % of vehicle control (Mean±SD).
Cortical neurons from embryonic day 16-17 are prepared from C57Bl6/J mouse fetuses, as described in Example I-1. After 96-h incubation, axonal length is recorded. Briefly, cells were washed with ice-cold PBS and fixed with cold methanol. Following fixation, cells are immunolabelled using a specific antibody detecting total MAP2 protein. Antibodies to MAP2 are excellent markers on neuronal cells, their axons and neuronal dendrites. For quantification of axonal length, six independent images of labelled cells are captured using an inverted microscope. Pictures of cells are analyzed using Neuron-J software and axonal length is recorded manually. A minimum of 100 independent neurons are treated. The data are expressed as mean axonal length (expressed in μm) (Mean±SD). Statistical differences between vehicle-treated cells and cells treated with compounds are determined using a t-test.

Test [2] relates to human iPSC-derived neurons challenged with Aβ1-42 oligomers (AβO). Nature of the test: AβO-induced neuronal death in human iPSC-derived neurons, NSE ELISA assay. It is filed as cell-based. Conditions: 10000 nM; for viability at 10 µM: Homo sapiens, Neuron, read-out: cell viability. The procedure: iPSCs were treated at 0 h (T0) with vehicle or 1 μM AβO. Different concentrations of Compound C or 0.1 μM HNG (used as positive control) were added concomitantly to AβO at 0 h (T0), 3 h (T3) or 6 h (T6) after AβO. Then, were incubated for 24 h and cell viability was determined using the NSE ELISA assay (n=6 determinations per condition, 1 independent experiment), Data are represented as % of vehicle control (Mean±SD). […]
To determine whether compound C might rescue neuronal death in human iPSC-derived neurons challenged with Aβ1-42 oligomers (AβO). In this cellular model, AβO induce a dramatic neuronal death that could be monitored by the level of neuronal specific enolase (NSE) using a specific ELISA assay. Compound C will be added at different time points (concomitantly and after AMBO) with the aim to identify rescuing effects.
Cells (HIP-Neuronal progenitors, GlobalStem, Cat #GSC-4312, Lot #20010260) are plated in 96-well plates at a density of 60.000 cells per well and culture. Before experiments, cells are matured for five weeks and kept at 37° C. in a humidified 5% CO2 atmosphere.
Cells are incubated with vehicle or 1 μM AβO in the absence or presence of different concentrations (i.e. 10, 100, 1000 and 10000 nM) of Compound C added concomitantly to AβO (T0), 3 h after AβO (T3), or 6 h after AβO (T6). Cells are incubated for 24 h in a final volume of 100 μL per well. For positive control, cells are treated similarly in the presence of 0.1 μM HNG (i.e. S14G variant of humanin peptide). In addition, neuronal loss is monitored using the detection of neuronal specific enolase (NSE) by ELISA assay according to supplier's recommendations (CloneCloud, Cat #SEA537Hu). A total of three data points per experimental condition will be generated here. […]
On the technique in general: ELISA stands for enzyme-linked immunosorbent assay.

With `CCCCCCCCCCCCCCC(=O)OCC(COC(=O)CCCCCCCCCCCCCC)OC(=O)CCCCCCCCCCCCCC` [Compound C, tripentadecanoin], the figures for the “neuronal axon outgrowth (mean axonal length)” value in test [1] (1000 nM) and in test [1] (10000 nM) were 199.93±101.17 μm and 304.27±149.60 μm, respectively. For the same compound, the “% of neuroprotection and anti-apoptotic effects” value in test [2] (T0) was 53.7%; in test [2] (T3), 90.8%; in test [2] (T6), 78.9%. For the same compound, the viability at 10 µM in test [2] (T0) worked out at 76.7 ± 2.7%; in test [2] (T3) it was 94.2 ± 7.1%; in test [2] (T6), 88.8 ± 1.3%.

(Values after patent publication US12594255B2, “Lipids with odd number of carbon atoms and their use as pharmaceutical composition or nutritional supplement” (SunRegen Healthcare AG, priority 2016, dated 2026).)
